Where a name gives a salt, the structure may show the parent alone.
Key:
[1] = system: basal gastric acid secretion in pylorus-ligated rats; assay: Inhibitory effects on basal gastric acid secretion in pylorus-ligated rats (Shay's rat model); format: in vivo, Sprague Dawley (SD) rats; conditions: 2.0 mg/kg into the duodenum, 5 hours after ligation
Description: Inhibitory effects of the compounds prepared in Examples 2, 8 and 22 on basal gastric acid secretion were measured according to Shay's rat model (Shay, H., et al., 1945, gastroenterology, 5, p 43-61). Male Sprague Dawley (SD) rats (body weight 180-220 g) were divided into 4 groups (n=6-7) and fasted for 18 hours with free access to water. Under isoflurane anesthesia, the abdomens of the rats were incised and then the pylorus was ligated. Immediately after ligation, control group was administered with 2 mL/kg of 0.5% methyl cellulose (MC) aqueous solution into the duodenum, and the other groups were administered with test compounds suspended in 0.5% methyl cellulose (MC) aqueous solution at a dose of 2.0 mg/kg/2 ml. 5 hours after ligation, the test animals were sacrificed, and gastric contents were removed. The removed contents were centrifuged at 4,000×g for 10 minutes and the supernatant was separated to obtain the gastric juice. The amount and pH of the gastric juice were measured and the acidity in the gastric juice was measured by 0.1N NaOH volume (ueq/mL) required for the titration of gastric acid to pH 7.0. Total acid output was measured by multiplying the acidity of the gastric juice by the amount of the gastric juice. % inhibitory activity of test compounds were calculated according to the following equation, and the results are shown in Table 2. % inhibitory activity of test compound=[(total acid output of control group-total acid output of the group treated with test compounds)/total acid output of control group]×100 [Equation 1]

[2] = system: indomethacin-induced gastric damage in rats; assay: Gastric damage inhibitory activity against indomethacin-induced gastric damage in rats; format: in vivo, Sprague Dawley (SD) rats; conditions: 2.0 mg/kg oral, 1 hour before indomethacin 80 mg/kg
Description: The inhibitory activity against the gastric damage of the compounds prepared in Examples 2 and 8 was measured using indomethacin model (Chiou., Et al., 2005, gastroenterology, 128, p 63-73). Male Sprague Dawley (SD) rats (body weight 180-220 g) was divided into 5 groups (n=10) and fasted for 24 hours with free access to water. Control group was orally administered with 5 mL/kg of 0.5% methyl cellulose (MC) aqueous solution, and the other groups were orally administered with test compounds suspended in 0.5% methyl cellulose (MC) aqueous solution at a dose of 2.0 mg/kg/5 ml. For comparison, the compound of Example 134 (Comparative Example 1) and the compound of Example 165 (Comparative Example 2) in International Patent Publication No. WO 2006/036024 were orally administered at a dose of 2.0 mg/kg/5 ml by suspending 0.5% methylcellulose (MC) aqueous solution, respectively. […] The incised stomach was placed on a fixture, fixed by a fixing pin while spreading out using a forcep and then the gastric damage area was measured. % Inhibitory activity of test compounds was calculated according to the following Equation 2, and the results are shown in Table 3. % Inhibitory activity of test compound=[1−(gastric damage area % of the group treated with test compounds)/(gastric damage area % of control group)]×100 [Equation 2]

H. pylori = assay: Antimicrobial activity against H. pylori, MIC by agar dilution method; format: cell-based; conditions: Helicobacter pylori

In the case of CNCc1cn(S(=O)(=O)c2cccc(C(F)(F)F)c2)c(-c2ccccc2F)c1OC [Example 2, hydrochloride], the “% inhibitory activity (total acid output)” value [1] is reported as 93.5% and the “% inhibitory activity (gastric damage area)” value [2] is reported as 91.8%.

In the case of CNCc1cn(S(=O)(=O)c2cccc(F)c2)c(-c2c(F)cc(F)cc2F)c1OC.Cl [Example 22, 1-(1-((3-fluorophenyl)sulfonyl)-4-methoxy-5-(2,4,6-trifluorophenyl)-1H-pyrrol-3-yl)-N-methylmethanamine hydrochloride], the “% inhibitory activity (total acid output)” value [1] is reported as 88.1%, the MIC (H. pylori; strain 45 (HPKTCC B0004)) is reported as 75 µg/mL and the MIC (H. pylori; strain 51 (HPKTCC B0006)) is reported as 75 µg/mL. It also gave an MIC (H. pylori; strain 52 (HPKTCC B0007)) of 75 µg/mL, an MIC (H. pylori; strain 92-33-1 (HPKTCC B0182)) of 75 µg/mL and an MIC (H. pylori; strain 92-82-1 (HPKTCC B0233)) of 75 µg/mL. For the same compound, the MIC (H. pylori; strain 92-157 (HPKTCC B0152)) was 75 µg/mL, the MIC (H. pylori; strain 118 (HPKTCC B0017)) was 75 µg/mL and the MIC (H. pylori; strain 126 (HPKTCC B0020)) was 75 µg/mL. The MIC (H. pylori; strain 127 (HPKTCC B0021)) was 75 µg/mL, the MIC (H. pylori; strain 133 (HPKTCC B0023)) was 75 µg/mL and the MIC (H. pylori; strain 134 (HPKTCC B0024)) was 75 µg/mL. It also gave an MIC (H. pylori; strain 138 (HPKTCC B0026)) of 75 µg/mL, an MIC (H. pylori; strain 156 (HPKTCC B0035)) of 75 µg/mL and an MIC (H. pylori; strain 159 (HPKTCC B0037)) of 75 µg/mL. The MIC (H. pylori; strain 164 (HPKTCC B0040)) was 75 µg/mL, the MIC (H. pylori; strain 183 (HPKTCC B0047)) was 75 µg/mL and the MIC (H. pylori; strain 193 (HPKTCC B0051)) was 75 µg/mL. The MIC (H. pylori; strain 198 (HPKTCC B0055)) was 75 µg/mL, the MIC (H. pylori; strain 205 (HPKTCC B0058)) was 75 µg/mL and the MIC (H. pylori; strain 210 (HPKTCC B0061)) was 75 µg/mL. It also gave an MIC (H. pylori; strain 221 (HPKTCC B0068)) of 75 µg/mL, an MIC (H. pylori; strain 228 (HPKTCC B0071)) of 75 µg/mL and an MIC (H. pylori; strain 235 (HPKTCC B0074)) of 75 µg/mL. For the same compound, the MIC (H. pylori; strain 236 (HPKTCC B0075)) was 75 µg/mL, the MIC (H. pylori; strain 302 (HPKTCC B0088)) was 75 µg/mL and the MIC (H. pylori; strain 26695 (HPKTCC B0100)) was 75 µg/mL. It also gave an MIC (H. pylori; strain 26695 CHGKG (HPKTCC B3412)) of 150 µg/mL, an MIC (H. pylori; strain CH24 (HPKTCC B0508)) of 75 µg/mL and an MIC (H. pylori; strain CH94 (HPKTCC B0582)) of 75 µg/mL. For the same compound, the MIC (H. pylori; strain CH173 (HPKTCC B0494)) was 75 µg/mL, the MIC (H. pylori; strain CH175 (HPKTCC B0496)) was 75 µg/mL and the MIC (H. pylori; strain CH189 (HPKTCC B0498)) was 75 µg/mL. For the same compound, the MIC (H. pylori; strain CH192 (HPKTCC B0500)) was 75 µg/mL, the MIC (H. pylori; strain CH272 (HPKTCC B0516)) was 75 µg/mL and the MIC (H. pylori; strain CH369 (HPKTCC B0522)) was 75 µg/mL. It also gave an MIC (H. pylori; strain CH381 (HPKTCC B0524)) of 75 µg/mL, an MIC (H. pylori; strain CH498 (HPKTCC B0536)) of 75 µg/mL and an MIC (H. pylori; strain CH502 (HPKTCC B0537)) of 75 µg/mL. It also gave an MIC (H. pylori; strain CH523 (HPKTCC B0541)) of 75 µg/mL, an MIC (H. pylori; strain CH541 (HPKTCC B0548)) of 75 µg/mL and an MIC (H. pylori; strain CH588 (HPKTCC B0556)) of 75 µg/mL. It also gave an MIC (H. pylori; strain CH609 (HPKTCC B0558)) of 75 µg/mL, an MIC (H. pylori; strain CH612 (HPKTCC B0559)) of 75 µg/mL and an MIC (H. pylori; strain CH631 (HPKTCC B0560)) of 75 µg/mL. The MIC (H. pylori; strain CH635 (HPKTCC B0562)) was 75 µg/mL, the MIC (H. pylori; strain CH674 (HPKTCC B0564)) was 75 µg/mL and the MIC (H. pylori; strain CH1056 (HPKTCC B0487)) was 75 µg/mL. The MIC (H. pylori; strain CJH7 (HPKTCC B0606)) was 75 µg/mL, the MIC (H. pylori; strain CJH8 (HPKTCC B0608)) was 75 µg/mL and the MIC (H. pylori; strain CJH9 (HPKTCC B0610)) was 75 µg/mL. For the same compound, the MIC (H. pylori; strain CJH10 (HPKTCC B0587)) was 75 µg/mL, the MIC (H. pylori; strain CJH13 (HPKTCC B0589)) was 75 µg/mL and the MIC (H. pylori; strain CJH31 (HPKTCC B0594)) was 75 µg/mL. The MIC (H. pylori; strain CJH33 (HPKTCC B0595)) was 75 µg/mL, the MIC (H. pylori; strain CJH43 (HPKTCC B0596)) was 75 µg/mL and the MIC (H. pylori; strain CJH50 (HPKTCC B0599)) was 75 µg/mL. The MIC (H. pylori; strain G88001 (HPKTCC B0722)) was 75 µg/mL, the MIC (H. pylori; strain G88007 (HPKTCC B0725)) was 75 µg/mL and the MIC (H. pylori; strain J99 (HPKTCC B0748)) was 75 µg/mL. The MIC (H. pylori; strain SS1-P-4′ (HPKTCC B3392)) was 75 µg/mL.

Reference: patent publication US10100010B1, “4-methoxy pyrrole derivatives or salts thereof and pharmaceutical composition comprising the same” (Daewoong Pharmaceutical Co., Ltd., priority 2015, dated 2018)
